# From US20180000085A1, “USE OF PICOLINAMIDE COMPOUNDS WITH FUNGICIDAL ACTIVITY” (DOW AGROSCIENCES LLC, priority 2014, published 2018)
# What was measured:
# Zymoseptoria tritici = assay: Leaf blotch of wheat (SEPTTR) disease control on wheat seedlings; assay type: in vivo; set-up: key to SEPTTR 1DP, HV activity at 100 ppm (% control rating) / SEPTTR 3DC, HV activity at 100 ppm (% control rating) / SEPTTR disease control, 1DP / SEPTTR disease control, 3DC / SEPTTR 1DP disease control rating, HV activity / SEPTTR 3DC disease control rating, HV activity / SEPTTR 3DC, LV activity at 125.1 g/H (% Control rating) / SEPTTR 1DP, LV activity at 125.1 g/H (% Control rating) / SEPTTR 1DP disease control rating, LV activity at 125.1 g/H / SEPTTR 3DC disease control rating, LV activity at 125.1 g/H / SEPTTR 3DC disease control rating, HV activity at 100 ppm / SEPTTR 1DP disease control rating, HV activity at 100 ppm / HV activity at 100 ppm SEPTTR 3DC (disease control rating) / HV activity at 100 ppm SEPTTR 1DP (disease control rating) / LV activity at 125.1 g/H SEPTTR 1DP (disease control rating) / LV activity at 125.1 g/H SEPTTR 3DC (disease control rating): A: > 80; B: ≤ 80; C: Not Tested; D: No Activity Observed in the Reported Assay; details: for SEPTTR 1DP disease control rating, HV activity / SEPTTR 3DC disease control rating, HV activity: HV application at 100 ppm
# Puccinia triticina = assay: Wheat brown rust (PUCCRT) disease control on wheat seedlings; assay type: in vivo; set-up: key to PUCCRT 3DC, HV activity at 100 ppm (% control rating) / PUCCRT disease control, 3DC / PUCCRT 1DP disease control rating, HV activity / PUCCRT 3DC disease control rating, HV activity / PUCCRT 3DC, LV activity at 125.1 g/H (% Control rating) / PUCCRT 1DP, LV activity at 125.1 g/H (% Control rating) / PUCCRT 3DC disease control rating, LV activity at 125.1 g/H / PUCCRT 1DP disease control rating, LV activity at 125.1 g/H / PUCCRT 3DC disease control rating, HV activity at 100 ppm / PUCCRT 1DP disease control rating, HV activity at 100 ppm / HV activity at 100 ppm PUCCRT 3DC (disease control rating) / LV activity at 125.1 g/H PUCCRT 1DP (disease control rating) / LV activity at 125.1 g/H PUCCRT 3DC (disease control rating): A: > 80; B: ≤ 80; C: Not Tested; D: No Activity Observed in the Reported Assay; details: for PUCCRT 1DP disease control rating, HV activity / PUCCRT 3DC disease control rating, HV activity: HV application at 100 ppm
# [1] = 1 Day Protectant, wheat leaf blotch
# [2] = 3 Day Curative, wheat leaf blotch
# [3] = 1 Day Protectant, wheat brown rust
# [4] = 3 Day Curative, wheat brown rust
# [5] = low volume application, 125.1 g/H, 1 Day Protectant
# [6] = low volume application, 125.1 g/H, 3 Day Curative
# [7] = low volume application, 125.1 g/H, 1 day protectant
# [8] = low volume application, 125.1 g/H, 3 day curative
# [9] = high volume application, 100 ppm, 1 day protectant
# [10] = high volume application, 100 ppm, 3 day curative
SMILES,"SEPTTR 1DP disease control rating, HV activity (Zymoseptoria tritici; [1])","SEPTTR 3DC disease control rating, HV activity (Zymoseptoria tritici; [2])","PUCCRT 1DP disease control rating, HV activity (Puccinia triticina; [3])","PUCCRT 3DC disease control rating, HV activity (Puccinia triticina; [4])",also measured
CC[C@@H](CCOC)[C@@H](Oc1ccccc1)[C@H](C)OC(=O)[C@H](C)NC(=O)c1nccc(OC)c1O [Cmpd 305],A (> 80),A (> 80),A (> 80),A (> 80),
COCC[C@@H](OCc1ccccc1)[C@H](C)OC(=O)[C@H](C)NC(=O)c1nccc(OC)c1OCOC(C)=O [Cmpd 526],,,,,"SEPTTR 1DP, LV activity at 125.1 g/H (% Control rating) (Zymoseptoria tritici; [5]): B (≤ 80); SEPTTR 3DC, LV activity at 125.1 g/H (% Control rating) (Zymoseptoria tritici; [6]): B (≤ 80); PUCCRT 1DP, LV activity at 125.1 g/H (% Control rating) (Puccinia triticina; [5]): D; PUCCRT 3DC, LV activity at 125.1 g/H (% Control rating) (Puccinia triticina; [6]): B (≤ 80)"
CCCOC(CC)C(Oc1ccccc1)C(C)OC(=O)C(C)NC(=O)c1nccc(OC)c1OC(C)=O (stereo not shown) [Cmpd 450],A (> 80),A (> 80),A (> 80),A (> 80),"SEPTTR 1DP disease control rating, LV activity (Zymoseptoria tritici; Low volume application at 125.1 g/H, 1 Day Protectant, wheat leaf blotch): B (≤ 80); SEPTTR 3DC disease control rating, LV activity (Zymoseptoria tritici; Low volume application at 125.1 g/H, 3 Day Curative, wheat leaf blotch): B (≤ 80); PUCCRT 1DP disease control rating, LV activity (Puccinia triticina; Low volume application at 125.1 g/H, 1 Day Protectant, wheat brown rust): A (> 80); PUCCRT 3DC disease control rating, LV activity (Puccinia triticina; Low volume application at 125.1 g/H, 3 Day Curative, wheat brown rust): A (> 80)"
COc1ccnc(C(=O)NC(C)C(=O)OC(C)C(Oc2cccc3ccccc23)C(C)C)c1O (stereo not shown) [Cmpd 397],B (≤ 80),B (≤ 80),A (> 80),A (> 80),
CCC(CC)C(Oc1ccc(Cl)cc1Cl)C(C)OC(=O)C(CC(C)C)NC(=O)c1nccc(OC)c1O (stereo not shown) [Cmpd 430],D,D,B (≤ 80),D,
CCOc1ccnc(C(=O)N[C@@H](C)C(=O)O[C@@H](C)[C@@H](CC(C)C)Oc2cccc(F)c2)c1O [Cmpd 1039],,,,,"HV activity at 100 ppm SEPTTR 1DP (disease control rating) (Zymoseptoria tritici; HV application, 100 ppm, 1 Day Protectant, wheat leaf blotch): D; HV activity at 100 ppm SEPTTR 3DC (disease control rating) (Zymoseptoria tritici; HV application, 100 ppm, 3 Day Curative, wheat leaf blotch): B (≤ 80); HV activity at 100 ppm PUCCRT 1DP (disease control rating) (Puccinia triticina; HV application, 100 ppm, 1 Day Protectant, wheat brown rust): A (> 80); HV activity at 100 ppm PUCCRT 3DC (disease control rating) (Puccinia triticina; HV application, 100 ppm, 3 Day Curative, wheat brown rust): A (> 80)"
COc1ccnc(C(=O)N[C@@H](C)C(=O)O[C@@H](C)[C@H](Oc2ccc(Cl)cc2)C2CCCC2)c1OC(C)=O [Cmpd 921],,,,,"SEPTTR 1DP disease control rating, LV activity at 125.1 g/H (Zymoseptoria tritici; [7]): A (> 80); SEPTTR 3DC disease control rating, LV activity at 125.1 g/H (Zymoseptoria tritici; [8]): B (≤ 80); PUCCRT 1DP disease control rating, LV activity at 125.1 g/H (Puccinia triticina; [7]): A (> 80); PUCCRT 3DC disease control rating, LV activity at 125.1 g/H (Puccinia triticina; [8]): A (> 80)"
CCCO[C@@H]([C@H](C)OC(=O)[C@H](C)NC(=O)c1nccc(OC)c1OC(C)=O)[C@H](CC)Oc1ccccc1 [Cmpd 511],,,,,"SEPTTR 1DP, LV activity at 125.1 g/H (% Control rating) (Zymoseptoria tritici; [5]): B (≤ 80); SEPTTR 3DC, LV activity at 125.1 g/H (% Control rating) (Zymoseptoria tritici; [6]): A (> 80); PUCCRT 1DP, LV activity at 125.1 g/H (% Control rating) (Puccinia triticina; [5]): A (> 80); PUCCRT 3DC, LV activity at 125.1 g/H (% Control rating) (Puccinia triticina; [6]): A (> 80)"
CCC[C@@H](OCC1CC1)[C@H](C)OC(=O)[C@H](C)NC(=O)c1nccc(OC)c1O [Cmpd 1003],,,,,"SEPTTR 1DP disease control rating, HV activity at 100 ppm (Zymoseptoria tritici; [9]): A (> 80); SEPTTR 3DC disease control rating, HV activity at 100 ppm (Zymoseptoria tritici; [10]): B (≤ 80); PUCCRT 1DP disease control rating, HV activity at 100 ppm (Puccinia triticina; [9]): A (> 80); PUCCRT 3DC disease control rating, HV activity at 100 ppm (Puccinia triticina; [10]): A (> 80)"
CCOc1ccnc(C(=O)N[C@@H](C)C(=O)O[C@@H](C)[C@H](Oc2ccccc2)C(C)C)c1O [Cmpd 418],B (≤ 80),D,B (≤ 80),A (> 80),
CCC(CC)C(Oc1cc(F)cc(Cl)c1)C(C)OC(=O)C(CC(C)C)NC(=O)c1nccc(OC)c1O (stereo not shown) [Cmpd 429],B (≤ 80),D,B (≤ 80),D,
COc1ccnc(C(=O)N[C@@H](C)C(=O)O[C@@H](C)[C@@H](Cc2ccccc2)Oc2ccccc2)c1O [Cmpd 345],D,B (≤ 80),A (> 80),A (> 80),
